This is an account of results in patent US7468391B2, “Methods for treating retinoid responsive disorders using selective inhibitors of CYP26A and CYP26B” (Allergan, Inc., priority 2003, dated 2008).

Where “and” joins values, the source holds several entries; their conditions need not be identical. Equal entries are not always repeated. Entries after “also recorded” stand apart in the source; their conditions may differ. Where two headings read alike, the source gives them in different places.

The subject of series [1] is hamster flank organ sebaceous gland. Description: Hamster flank organ sebaceous gland differentiation (model for acne). Format: in vivo, male golden syrian hamsters. Conditions: for sebaceous gland differentiation in hamster flank organ: oral gavage, 6 days/week for 4 weeks. How it is done: Differentiation of hamster flank organ sebaceous gland is a model system for development of acne. To determine the effectiveness of selective CYP26B inhibitors for treating acne, such inhibitors were tested in this model system. To confirm that this model system can predict the effectiveness of a compound in reducing acne, 13-cis retinoic acid (acutane) was used as a positive control.
(§1) For the hamster model system, male golden syrian hamsters were fed LabDiet#5002 rodent diet and housed individually on a 14/10 hr light/dark cycle. For treatment, the animals were randomized according to body weight and they were also weighed at each treatment so that the drug doses could be adjusted accordingly. The animals were treated daily by oral gavage, 6 days/week for 4 weeks. At the end of treatments, the animals were sacrificed by carbon dioxide inhalation. The flank organs were then excised and spread on a small piece of index card which was placed in a histology cassette for fixation in 10% buffered formaldehyde. The specimen was divided into 5 equally spaced portions to make paraffin blocks and one 5-micrometer H&E sections was prepared from each block. The two sections that contained the most sebaceous glands were used to determine the average acini area of the flank organ. A video camera attached to a standard microscope with the 4× objective was used to capture the images of the sebaceous glands. Computer programs Videoshop and NIH Image 1.63 were used to quantify the acini areas. All the recognizable sebaceous glands in the two sections were analyzed and the means were derived for comparison among various treatments. In all studies, blood samples were also collected for determining the levels of serum triglyceride using a triglyceride GPO Trinder kit from Sigma Chemicals (St. Louis, Mo.).

Series [2] is classed as in vivo. How it is done:
as §1
Experimental results showing the effect of various retinoid compounds on differentiation of sebaceous gland in […] flank organ were generated.

In a further series the test system is human patients. The settings on record: Kuijpers, et al. (1998); cited from earlier work.
The test system of a further series is hacyp26a. The experiment in a line: Taqman RT-PCR of CYP26A expression in hamster flank organ sebaceous gland. Format: in vivo. How it is done: (§2) Because CYP26 functions in cells to reduce retinoic acid receptor signaling, the effect of inhibiting CYP26 to increase retinoic acid receptor signaling, and thereby reduce differentiation of hamster sebaceous gland differentiation, was examined. The expression of CYP26A and CYP26B in hamster flank organ sebaceous gland was determined using Taqman RT-PCR. Hamsters were treated as described above and sacrificed at various time points (1 day to 3 weeks). The flank organs were excised and placed under a dissecting microscope. Sebaceous glands were removed and put into liquid nitrogen immediately. RNAs were isolated from the glands using Trizol reagents (Invitrogen; San Diego, Calif.) as described by the manufacturer. The RNAs were treated with DNase to remove contaminating genomic DNAs and further purified with the DNA-free kit (Ambion; Austin, Tex.). Quantitative RT-PCR was performed on an ABI 7700 machine using Invitrogen's Platinum qRT-PCR kit with CYP26-specific primers and probes.
A general note: Quantitative PCR measures a nucleic acid by following its amplification.

In the next series the test system is hacyp26b. Description: Taqman RT-PCR of CYP26B expression in hamster flank organ sebaceous gland. It counts as in vivo. How it is done: as §2

As to `CCc1ccc(C2=CC(C)(C)Sc3ccc(C#Cc4ccc(C(=O)O)cc4)cc32)cc1` [AGN194310], in series [1] (given with 13-cis retinoic acid, FIG. 2), the “effect on the 13-cis retinoic acid-induced reduction in sebaceous gland differentiation” value is reported as “blocked the effect of 13-cis retinoic acid treatment on sebaceous gland differentiation”.
For the compound `CC1=C(/C=C/C(C)=C\C=C\C(C)=C/C(=O)O)C(C)(C)CCC1=O` [4-oxo-13-cis RA], in series [2] (hamster flank organ study), the toxicity entry is listed as “lower toxicity levels”. In series [1], the “sebaceous gland differentiation in hamster flank organ” value is listed as “appeared to be more effective”.
In the case of `Clc1cccc(C(c2ccc3[nH]cnc3c2)n2ccnc2)c1` (centres unmarked) [liarozole], in the series on human patients, the “effect of treatment in human patients” value was “amelioration of psoriasis”.
As for `CC1=C(/C=C/C(C)=C/C=C/C(C)=C\C(=O)O)C(C)(C)CCC1` [13-cis retinoic acid], the toxicity result in series [2] (hamster, in vivo) was “lower toxicity levels”. In addition, the “sebaceous gland differentiation in hamster flank organ” value in series [1] is recorded as “effective in reducing sebaceous gland differentiation; also recorded: appeared to be more effective”. For the same compound, the “hacyp26a Ct” value in the series on hacyp26a (HFO-9, 1w, listed as 13cisRA) is 29.8 and 29.6; in the series with hacyp26a (HFO-9, 2w), 30.1; with hacyp26a (HFO-9, 3w, listed as 13cisRA) it was 33 and 31.9; with hacyp26a (HFO-9, 4d), 28.1. The “hacyp26a Relative to Veh” value with hacyp26a (HFO-9, 1w, listed as 13cisRA) was 12.1× and 13.9×; with hacyp26a (HFO-9, 2w), 9.8×; with hacyp26a (HFO-9, 4d), 22.6×. The “CYP26A expression in hamster flank sebaceous gland” value with hacyp26a (Table 2) was “induced”. Besides, the “hacyp26b Ct” value in the series with hacyp26b (HFO-9, 1w, listed as 13cisRA) is 30.5 and 31.8; in the series on hacyp26b (HFO-9, 2w), 34.1; in the series with hacyp26b (HFO-9, 3w, listed as 13cisRA), 36.7 and 35.7; with hacyp26b (HFO-9, 4d), 30.6. Further, the “hacyp26b Relative to veh” value in the series with hacyp26b (HFO-9, 2w) was 0.6×; in the series with hacyp26b (HFO-9, 3w, listed as 13cisRA), 0.1× and 0.2×; in the series with hacyp26b (HFO-9, 4d), 13×. Besides, in the series with hacyp26b (Table 2), the “CYP26B expression in hamster flank sebaceous gland” value was “induced”.
Consider `C/C(=C\c1ccc(C(=O)O)cc1)c1ccc2c(c1)C(C)(C)CCC2(C)C` [TTNPB], for which the toxicity entry in series [2] (hamster, in vivo) is reported as “observed at effective doses”.
